Values of other authors, collected in patent US20110021626A1, “ENCAPSULATION OF VITAMIN C INTO WATER SOLUBLE DENDRIMERS” (CENTRE NATIONAL DE LA RECHERCHE SCIENTIFIQUE - CNRS, priority 2008, published 2011).

Settings: at 25° C. in water

- pKa: 4,11
Compound: O=C1O[C@H]([C@@H](O)CO)C(O)=C1O [ascorbic acid]
